Values after ≈ are worked out from the molar mass of the structure shown. Bridge positions count the residues as written; N and C are the ends. Square brackets hold non-standard residues; d marks the D form. Peptide text beside a SMILES is read from it. Phe(4-tBu) = CC(C)(C)c1ccc(C[C@H](N)C(=O)O)cc1; S5 = C=CCCC[C@](C)(N)C(=O)O; Orn = NCCC[C@H](N)C(=O)O; Dab = NCC[C@H](N)C(=O)O; Dap = NC[C@H](N)C(=O)O
Key:
[1] = 90 minute cytotoxicity assay (LDH release), renal toxicity; type: cell-based; details: human
Procedure: (§1) Cell culture: RPTEC were maintained in MEM media supplemented with growth factors. HEPG2 cell line was maintained in Eagle's Minimum Essential Medium (EMEM) supplemented with fetal bovine serum to a final concentration of 10%.
90 minute cytotoxicity assay: Cells were plated in a 96-well format, and after overnight incubation, media was replaced with fresh media. Serial dilutions of StAMPs from a 5 mg/mL water stock, or vehicle, were added to the cells in a final volume of 100 μl. After incubating at 37° C. for 90 min, 50 μl of cell culture media was transferred to a clear 96-well plate, incubated with 50 μl of lactate dehydrogenase (LDH) assay reagent for 10 min, and absorbance measured at 490 nm on a microplate reader.
(§2) Renal toxicity was measured after 90 minutes of incubation, while liver toxicity was measured after 48 hours of incubation with StAMPs. N/A=not tested.

[2] = 48 hours cytotoxicity assay (CellTiter-Glo), liver toxicity; type: cell-based; details: human
Procedure: as §1
48 hours cytotoxicity assay: Cells were plated in a 96-well format, and after 4 hour incubation to allow attachment, serial dilutions of StAMPs from a 5 mg/mL water stock, or vehicle, were then added to the cells in a final volume of 100 μl. After incubating at 37° C. for 48 hours, 100 μl of CellTiter-Glo® reagent was added to the cells, and the plates were incubated 10 minutes at room temperature. Luminescence was then measured on a microplate reader.
as §2

SMILES | IC50 at 90 min [1] [µg/mL] | IC50 at 48 hours [2] [µg/mL]
CC[C@H](C)[C@@H]1NC(=O)[C@@](C)(NC(=O)[C@H](CC(C)C)NC(=O)[C@H](CC(N)=O)NC(=O)[C@H](CCCCN)NC(=O)[C@H](CC(C)C)NC(=O)[C@H](CCCCN)NC(=O)[C@H](CCCCN)NC(=O)CNC(=O)[C@H](C)NC(=O)[C@]2(C)CCCC=CCCC[C@](C)(NC(=O)CN)C(=O)N[C@@H](Cc3ccccc3)C(=O)N[C@@H](CO)C(=O)N[C@@H](CCCCN)C(=O)N2)CCCC=CCCC[C@@](C)(C(=O)N[C@@H](CCCCN)C(=O)N[C@@H](CC(N)=O)C(N)=O)NC(=O)CNC(=O)[C@H](CO)NC1=O [compound 13] (H-G[S5]FSK[S5]AGKKLKNL[S5]ISG[S5]KN-NH2; staple 2-6, 15-19) | 17 (≈ 7.42 µM) | 210 (≈ 91.7 µM)
CC[C@H](C)[C@H](NC(=O)[C@H](CCN)NC(=O)[C@H](CCN)NC(=O)CNC(=O)[C@H](CCN)NC(=O)[C@]1(C)CCCC=CCCC[C@](C)(NC(=O)CN)C(=O)N[C@@H](Cc2ccccc2)C(=O)N[C@@H](CO)C(=O)N[C@@H](CCN)C(=O)N1)C(=O)N[C@@H](CCN)C(=O)N[C@@H](CC(N)=O)C(=O)N[C@@H](CC(C)C)C(=O)N[C@@]1(C)CCCC=CCCC[C@@](C)(C(=O)N[C@@H](CCN)C(=O)NCC(N)=O)NC(=O)CNC(=O)[C@H](CO)NC(=O)[C@H]([C@@H](C)CC)NC1=O [compound 14] (H-G[S5]FS[Dab][S5][Dab]G[Dab][Dab]I[Dab]NL[S5]ISG[S5][Dab]G-NH2; staple 2-6, 15-19) | 40 (≈ 18.9 µM) | ~150 (≈ 70.7 µM)
CC[C@H](C)[C@H](NC(=O)[C@H](CCCN)NC(=O)[C@H](CCCN)NC(=O)CNC(=O)[C@H](CCCN)NC(=O)[C@]1(C)CCCC=CCCC[C@](C)(NC(=O)CN)C(=O)N[C@@H](Cc2ccccc2)C(=O)N[C@@H](CO)C(=O)N[C@@H](CCCN)C(=O)N1)C(=O)N[C@@H](CCCN)C(=O)N[C@@H](CC(N)=O)C(=O)N[C@@H](CC(C)C)C(=O)N[C@@]1(C)CCCC=CCCC[C@@](C)(C(=O)N[C@@H](CCCN)C(=O)NCC(N)=O)NC(=O)CNC(=O)[C@H](CO)NC(=O)[C@H]([C@@H](C)CC)NC1=O [compound 15] (H-G[S5]FS[Orn][S5][Orn]G[Orn][Orn]I[Orn]NL[S5]ISG[S5][Orn]G-NH2; staple 2-6, 15-19) | 25 (≈ 11.3 µM) | ~100 (≈ 45.3 µM)
CC[C@H](C)[C@H](NC(=O)[C@H](CN)NC(=O)[C@H](CN)NC(=O)CNC(=O)[C@H](CN)NC(=O)[C@]1(C)CCCC=CCCC[C@](C)(NC(=O)CN)C(=O)N[C@@H](Cc2ccccc2)C(=O)N[C@@H](CO)C(=O)N[C@@H](CN)C(=O)N1)C(=O)N[C@@H](CN)C(=O)N[C@@H](CC(N)=O)C(=O)N[C@@H](CC(C)C)C(=O)N[C@@]1(C)CCCC=CCCC[C@@](C)(C(=O)N[C@@H](CN)C(=O)NCC(N)=O)NC(=O)CNC(=O)[C@H](CO)NC(=O)[C@H]([C@@H](C)CC)NC1=O [compound 16] (H-G[S5]FS[Dap][S5][Dap]G[Dap][Dap]I[Dap]NL[S5]ISG[S5][Dap]G-NH2; staple 2-6, 15-19) | > 200 | ~200 (≈ 98.2 µM)
CC[C@H](C)[C@H](NC(=O)[C@H](CCCCN)NC(=O)[C@H](CCCCN)NC(=O)CNC(=O)[C@H](CCCCN)NC(=O)[C@]1(C)CCCC=CCCC[C@](C)(NC(=O)CN)C(=O)N[C@@H](CCCCN)C(=O)N[C@@H](CO)C(=O)N[C@@H](CCCCN)C(=O)N1)C(=O)N[C@@H](CCCCN)C(=O)N[C@@H](CC(N)=O)C(=O)N[C@@H](CC(C)C)C(=O)N[C@@]1(C)CCCC=CCCC[C@@](C)(C(=O)N[C@@H](CCCCN)C(=O)N[C@@H](CC(N)=O)C(N)=O)NC(=O)CNC(=O)[C@H](CO)NC(=O)[C@H]([C@@H](C)CC)NC1=O [compound 17] (H-G[S5]KSK[S5]KGKKIKNL[S5]ISG[S5]KN-NH2; staple 2-6, 15-19) | 325 (≈ 140 µM) | 172 (≈ 73.9 µM)
CC[C@H](C)[C@H](NC(=O)[C@H](CCCCN)NC(=O)[C@H](CCCCN)NC(=O)CNC(=O)[C@H](CCCCN)NC(=O)[C@]1(C)CCCC=CCCC[C@](C)(NC(=O)CN)C(=O)N[C@@H](CCCCN)C(=O)N[C@@H](CO)C(=O)N[C@@H](CCCCN)C(=O)N1)C(=O)N[C@@H](CCCCN)C(=O)N[C@@H](CC(N)=O)C(=O)N[C@@H](Cc1ccc(C(C)(C)C)cc1)C(=O)N[C@@]1(C)CCCC=CCCC[C@@](C)(C(=O)N[C@@H](CCCCN)C(=O)N[C@@H](CC(N)=O)C(N)=O)NC(=O)CNC(=O)[C@H](CO)NC(=O)[C@H]([C@@H](C)CC)NC1=O [compound 19] (H-G[S5]KSK[S5]KGKKIKN[Phe(4-tBu)][S5]ISG[S5]KN-NH2; staple 2-6, 15-19) | 68 (≈ 28.1 µM) | 23 (≈ 9.51 µM)
CC[C@H](C)[C@H](NC(=O)[C@H](CCCCN)NC(=O)[C@H](CCCCN)NC(=O)CNC(=O)[C@H](CCCCN)NC(=O)[C@]1(C)CCCC=CCCC[C@](C)(NC(=O)CN)C(=O)N[C@@H](CCCCN)C(=O)N[C@@H](CO)C(=O)N[C@@H](CCCCN)C(=O)N1)C(=O)N[C@@H](CCCCN)C(=O)N[C@@H](CC(N)=O)C(=O)N[C@@H](CC(C)C)C(=O)N[C@@]1(C)CCCC=CCCC[C@@](C)(C(=O)N[C@@H](CCCCN)C(=O)N[C@@H](CC(N)=O)C(N)=O)NC(=O)CNC(=O)[C@H](CO)NC(=O)[C@H](Cc2ccc(C(C)(C)C)cc2)NC1=O [compound 20] (H-G[S5]KSK[S5]KGKKIKNL[S5][Phe(4-tBu)]SG[S5]KN-NH2; staple 2-6, 15-19) | 46 (≈ 19 µM) | 29 (≈ 12 µM)
CC[C@H](C)[C@H](NC(=O)[C@H](CCCCN)NC(=O)[C@H](CCCCN)NC(=O)CNC(=O)[C@H](CCCCN)NC(=O)[C@]1(C)CCCC=CCCC[C@](C)(NC(=O)CN)C(=O)N[C@@H](CCCCN)C(=O)N[C@@H](CO)C(=O)N[C@@H](CCCCN)C(=O)N1)C(=O)N[C@@H](CCCCN)C(=O)N[C@@H](CC(N)=O)C(=O)N[C@@H](CC(C)C)C(=O)N[C@@]1(C)CCCC=CCCC[C@@](C)(C(=O)N[C@@H](CCCCN)C(=O)N[C@@H](CC(N)=O)C(N)=O)NC(=O)[C@H](C(C)C)NC(=O)[C@H](CO)NC(=O)[C@H]([C@@H](C)CC)NC1=O [compound 21] (H-G[S5]KSK[S5]KGKKIKNL[S5]ISV[S5]KN-NH2; staple 2-6, 15-19) | 54 (≈ 22.8 µM) | 32 (≈ 13.5 µM)
CC[C@H](C)[C@H](NC(=O)[C@H](CCCCN)NC(=O)[C@H](CCCCN)NC(=O)CNC(=O)[C@H](CCCCN)NC(=O)[C@]1(C)CCCC=CCCC[C@](C)(NC(=O)CN)C(=O)N[C@@H](CCCCN)C(=O)N[C@@H](CO)C(=O)N[C@@H](CCCCN)C(=O)N1)C(=O)N[C@@H](CCCCN)C(=O)N[C@@H](CC(N)=O)C(=O)N[C@@H](CC(C)C)C(=O)N[C@@]1(C)CCCC=CCCC[C@@](C)(C(=O)N[C@@H](CCCCN)C(=O)N[C@@H](CC(N)=O)C(N)=O)NC(=O)[C@H](Cc2ccccc2)NC(=O)[C@H](CO)NC(=O)[C@H]([C@@H](C)CC)NC1=O [compound 22] (H-G[S5]KSK[S5]KGKKIKNL[S5]ISF[S5]KN-NH2; staple 2-6, 15-19) | 16 (≈ 6.62 µM) | 67 (≈ 27.7 µM)
CC[C@H](C)[C@H](NC(=O)[C@H](CCCCN)NC(=O)[C@H](CCCCN)NC(=O)CNC(=O)[C@H](CCCCN)NC(=O)[C@]1(C)CCCC=CCCC[C@](C)(NC(=O)CN)C(=O)N[C@@H](CCCCN)C(=O)N[C@@H](CO)C(=O)N[C@@H](CCCCN)C(=O)N1)C(=O)N[C@@H](CCCCN)C(=O)N[C@@H](CC(N)=O)C(=O)N[C@@H](CC(C)C)C(=O)N[C@@]1(C)CCCC=CCCC[C@@](C)(C(=O)N[C@@H](CCCCN)C(=O)N[C@@H](CC(N)=O)C(=O)N[C@@H](CCC(=O)O)C(N)=O)NC(=O)[C@H](Cc2ccccc2)NC(=O)[C@H](CO)NC(=O)[C@H]([C@@H](C)CC)NC1=O [compound 23] (H-G[S5]KSK[S5]KGKKIKNL[S5]ISF[S5]KNE-NH2; staple 2-6, 15-19) | 62 (≈ 24.3 µM) | 53 (≈ 20.8 µM)
CC[C@H](C)[C@H](NC(=O)[C@H](CCCCN)NC(=O)[C@H](CCCCN)NC(=O)CNC(=O)[C@H](CCCCN)NC(=O)[C@]1(C)CCCC=CCCC[C@](C)(NC(=O)CN)C(=O)N[C@@H](CCCCN)C(=O)N[C@@H](CO)C(=O)N[C@@H](CCCCN)C(=O)N1)C(=O)N[C@@H](CCCCN)C(=O)N[C@@H](CC(N)=O)C(=O)N[C@@H](CC(C)C)C(=O)N[C@@]1(C)CCCC=CCCC[C@@](C)(C(=O)N[C@@H](CCCCN)C(=O)N[C@@H](CC(N)=O)C(=O)NCC(=O)NCC(=O)NCC(=O)N[C@@H](CCC(=O)O)C(N)=O)NC(=O)[C@H](Cc2ccccc2)NC(=O)[C@H](CO)NC(=O)[C@H]([C@@H](C)CC)NC1=O [compound 24] (H-G[S5]KSK[S5]KGKKIKNL[S5]ISF[S5]KNGGGE-NH2; staple 2-6, 15-19) | 112 (≈ 41.2 µM) | 16 (≈ 5.89 µM)
CC[C@H](C)[C@H](NC(=O)[C@H](CCCCN)NC(=O)[C@H](CCCCN)NC(=O)CNC(=O)[C@H](CCCCN)NC(=O)[C@]1(C)CCCC=CCCC[C@](C)(NC(=O)[C@@H](N)CCCCN)C(=O)N[C@@H](Cc2ccccc2)C(=O)N[C@@H](CO)C(=O)N[C@@H](CCCCN)C(=O)N1)C(=O)N[C@@H](CCCCN)C(=O)N[C@@H](CC(N)=O)C(=O)N[C@@H](CC(C)C)C(=O)N[C@@]1(C)CCCC=CCCC[C@@](C)(C(=O)N[C@@H](CCCCN)C(=O)NCC(N)=O)NC(=O)CNC(=O)[C@H](CO)NC(=O)[C@H]([C@@H](C)CC)NC1=O [compound 25] (H-K[S5]FSK[S5]KGKKIKNL[S5]ISG[S5]KG-NH2; staple 2-6, 15-19) | 109 (≈ 46.2 µM) | 49 (≈ 20.8 µM)

Reference: patent US20240247035A1, “STAPLED ANTIMICROBIAL PEPTIDES (STAMPS) AND USES THEREOF” (Lytica Therapeutics, Inc., priority 2021, published 2024)
